Tests used:
[1] = Stress stability study, open dishes at 50° C or 80° C, 75% RH, 3 days, HPLC impurity analysis; type: physicochemical
Protocol: In the present work, levosulpiride was subjected to stress and compatibility studies using methods published in the European Pharmacopoeia, Supplement 2001, 1572 Assay. Both levosulpiride powder and granules comprising 95 wt % levosulpiride and 5 wt % povidone (PVP) prepared as described in Example 1 were incubated in open dishes in a stability chamber/oven at 50° C. or 80° C., 75% relative humidity (RH) for 3 days. The substances were then analyzed by HPLC (high performance liquid chromatography). The mobile phase (MP) was composed of 10% acetonitrile (ACN), 10% methanol (MeOH) and an 80% solution containing 6.8 g/l of potassium dihydrogen phosphate and 1 g/l of sodium octanesulphonate, pH 3.3. The column was a 0.25 m×4.6 mm, 5 μm Zorbax RX C8 (Agilent, Inc.), flow was set at 1.5 ml/min with a wavelength of 240 nm.

[2] = Excipient compatibility study, HDPE bottles, 40° C, 75% RH, HPLC impurity analysis; type: physicochemical
Protocol: Studies were done to determine compatibility of the levosulpiride with the various excipients used in the formulations described herein. Samples, as described in Table 12 below, were packaged into 60 cc high-density polyethylene (HDPE) bottles with an induction seal, then stored at 40° C., 75% relative humidity (RH). Samples may be taken at various time points to analyze for the presence of impurities.
Various samples comprised of the levosulpiride with excipients as described in Table 11 below were packaged in 60 cc HDPE bottles with induction seals, then stored at 40° C., 75% RH. Samples were analyzed at 1 and 2 months using HPLC according to the method described in Example 6.

[3] = 1 vs. 2 month (one value given)

Impurities under the stressed condition ([1]; 50° C. or 80° C., 75% RH, 3 days): did not increase
Impurity B RPA (%) ([1]; 50° C./75% RH, Time = 3 days): <0.05%
Levosulpiride peak RPA (%) ([1]; 50° C./75% RH, Time = 3 days): 100%
Unknown Impurity 1 RPA (%) ([1]; 50° C./75% RH, Time = 3 days): <0.05%
Unknown Impurity 2 RPA (%) ([1]; 50° C./75% RH, Time = 3 days): 0.20%
Impurity B RPA (%) ([1]; 80° C./75% RH, Time = 3 days): <0.05%
Levosulpiride peak RPA (%) ([1]; 80° C./75% RH, Time = 3 days): 100%
Unknown Impurity 1 RPA (%) ([1]; 80° C./75% RH, Time = 3 days): <0.05%
Unknown Impurity 2 RPA (%) ([1]; 80° C./75% RH, Time = 3 days): 0.22%
Impurity B RPA (%) ([1]; Time = 0): <0.05%
Levosulpiride peak RPA (%) ([1]; Time = 0): 100%
Unknown Impurity 1 RPA (%) ([1]; Time = 0): <0.05%
Unknown Impurity 2 RPA (%) ([1]; Time = 0): 0.17%
Unknown Impurity 2 RPA (%) ([2]; 1 month): 0.18%
Impurity B RPA (%) [2, 3]: <0.05%
Levosulpiride peak RPA (%) [2, 3]: 100%
Unknown Impurity 1 RPA (%) [2, 3]: <0.05%
Unknown Impurity 2 RPA (%) ([2]; 2 month): 0.19%
Compound: CCN1CCC[C@H]1CNC(=O)c1cc(S(N)(=O)=O)ccc1OC [Levosulpiride]
